“And” between values parts separate entries of the source, which are not always exact repeats. Equal entries are not always repeated. Where two headings read alike, the source gives them in different places.
Experiments:
recombinant BRD4 BD1 = molecular target: T1, recombinant BRD4 BD1 (Homo sapiens, UniProt O60885); test: Competitive fluorescence-polarization (FP) binding assay, BRD4 BD1; settings: protein 10 nM, probe 1.5 nM
T1 construct: recombinant BRD4 BD1 and BRD4 BD2 proteins
Experimental: Fluorescence Polarization (FP) competitive binding studies were carried out using a FAM labeled fluorescent probe, see Cpd. […] Equilibrium dissociation constants (Kd) values of the fluorescent probe to BRD4 BD1 and BD2 proteins were determined from protein saturation experiments by monitoring the total fluorescence polarization of mixtures composed with the fluorescent probe at a fixed concentration and proteins with increasing concentrations up to full saturation. […] Plates were incubated at room temperature for 30 minutes with gentle shaking to assure equilibrium.
The IC50 and Ki values of compounds were determined in a competitive binding experiment. […] Mixtures of 10 μl of the tested compounds in assay buffer with 40% Ethylene Glycol and 190 μl of preincubated protein/probe complex solution in the assay buffer (100 mM potassium phosphate, pH 6.5, 0.01% Triton X-100) were added into assay plates which were incubated at room temperature for 30 minutes with gentle shaking. Final concentrations of proteins were 10 and 6 nM in assays for BRD4 BD1 and BD2, respectively. […] FP values were measured as described above. IC50 values were determined by nonlinear regression fitting of the competition curves.

recombinant BRD4 BD2 = molecular target: T2, recombinant BRD4 BD2 (Homo sapiens, UniProt O60885); test: Competitive fluorescence-polarization (FP) binding assay, BRD4 BD2; settings: protein 6 nM, probe 1.5 nM
T2 construct: recombinant BRD4 BD1 and BRD4 BD2 proteins
Experimental: Fluorescence Polarization (FP) competitive binding studies were carried out using a FAM labeled fluorescent probe, see Cpd. […] Equilibrium dissociation constants (Kd) values of the fluorescent probe to BRD4 BD1 and BD2 proteins were determined from protein saturation experiments by monitoring the total fluorescence polarization of mixtures composed with the fluorescent probe at a fixed concentration and proteins with increasing concentrations up to full saturation. Serial dilutions of testing proteins were mixed with the fluorescent probe to a final volume of 200 μl in the assay buffer (100 mM phosphate buffer, pH=6.5, 0.01% Triton X-100 (Sigma, 282103) being added right before assays). Final fluorescent probe concentration was 1.5 nM for both proteins. Plates were incubated at room temperature for 30 minutes with gentle shaking to assure equilibrium. FP values in millipolarization units (mP) were measured using the Infinite M-1000 plate reader (Tecan U.S., Research Triangle Park, N.C.) in Microfluor 1 96-well, black, round-bottom plates (Thermo Scientific, Waltham, Mass.) at an excitation wavelength of 485 nm and an emission wavelength of 530 nm.
The IC50 and Ki values of compounds were determined in a competitive binding experiment. […] Mixtures of 10 μl of the tested compounds in assay buffer with 40% Ethylene Glycol and 190 μl of preincubated protein/probe complex solution in the assay buffer (100 mM potassium phosphate, pH 6.5, 0.01% Triton X-100) were added into assay plates which were incubated at room temperature for 30 minutes with gentle shaking. Final concentrations of proteins were 10 and 6 nM in assays for BRD4 BD1 and BD2, respectively. Final probe concentration is 1.5 nM in both assays. […] FP values were measured as described above. IC50 values were determined by nonlinear regression fitting of the competition curves.

[1] = FP competitive binding, read-out: IC50 (nM) BRD4 BD1

| Structure (SMILES) | IC50 (recombinant BRD4 BD1; [1]) | IC50 (recombinant BRD4 BD2) | IC50 (recombinant BRD4 BD1; IC50 (nM) BRD4 BD1, FP competitive binding) [nM] |
| --- | --- | --- | --- |
| Cc1cc2c(s1)-n1c(C)nnc1COC2 [Cpd. No. 1, 2,9-dimethyl-4H,6H-thieno[2,3-e][1,2,4]triazolo[3,4-c][1,4]oxazepine] | 66900 nM |  |  |
| Cc1sc2c(c1Br)COCc1nnc(C)n1-2 [Cpd. No. 2, 3-bromo-2,9-dimethyl-4H,6H-thieno[2,3-e][1,2,4]triazolo[3,4-c][1,4]oxazepine] | 23200 nM |  |  |
| Cc1sc2c(c1-c1ccccc1)COCc1nnc(C)n1-2 [Cpd. No. 3, 2,9-dimethyl-3-phenyl-4H,6H-thieno[2,3-e][1,2,4]triazolo[3,4-c][1,4]oxazepine] | 13300 nM |  |  |
| Cc1sc2c(c1Cc1ccccc1)CN[C@@H](C)c1nnc(C)n1-2 [Cpd. No. 13, (S)-3-benzyl-2,6,9-trimethyl-5,6-dihydro-4H-thieno[3,2-f][1,2,4]triazolo[4,3-a][1,4]diazepine] | 1070 nM and 1200 nM | 1210 nM and 1350 nM |  |
| Cc1sc2c(c1Cc1ccccc1)CN[C@H](C)c1nnc(C)n1-2 [Cpd. No. 17, (R)-3-benzyl-2,6,9-trimethyl-5,6-dihydro-4H-thieno[3,2-f][1,2,4]triazolo[4,3-a][1,4]diazepine] | 1080 nM | 622 nM |  |
| CCC(=O)N1Cc2c(sc(C)c2Cc2ccccc2)-n2c(C)nnc2[C@@H]1C [Cpd. No. 19, (S)-1-(3-benzyl-2,6,9-trimethyl-4H-thieno[3,2-f][1,2,4]triazolo[4,3-a][1,4]diazepin-5(6H)-yl)propan-1-one] | 2430 nM | 3210 nM |  |
| COC(=O)C[C@H]1c2nnc(C)n2-c2sc(C)c(Cc3ccccc3)c2CN1C(=O)OCc1ccccc1 [Cpd. No. 21, benzyl (S)-3-benzyl-6-(2-methoxy-2-oxoethyl)-2,9-dimethyl-4H-thieno[3,2-f][1,2,4]triazolo[4,3-a][1,4]diazepine-5(6H)-carboxylate] | 23800 nM | 17700 nM |  |
| CCNC(=O)N1Cc2c(sc(C)c2Cc2ccccc2)-n2c(C)nnc2[C@@H]1C [Cpd. No. 22, (S)-3-benzyl-N-ethyl-2,6,9-trimethyl-4H-thieno[3,2-f][1,2,4]triazolo[4,3-a][1,4]diazepine-5(6H)-carboxamide] | 6060 nM | 5920 nM |  |
| COC(=O)C[C@@H]1NCc2c(sc(C)c2Cc2ccccc2)-n2c(C)nnc21 [Cpd. No. 23, methyl(S)-2-(3-benzyl-2,9-dimethyl-5,6-dihydro-4H-thieno[3,2-f][1,2,4]triazolo[4,3-a][1,4]diazepin-6-yl)acetate] | 2500 nM | 9010 nM |  |
| Cc1nnc2n1-c1scc(Cc3ccccc3)c1COC2 [Cpd. No. 30, 3-benzyl-9-methyl-4H,6H-thieno[2,3-e][1,2,4]triazolo[3,4-c][1,4]oxazepine] | 1390 nM |  |  |
| Cc1sc2c(c1C1=CCc3ccccc31)COCc1nnc(C)n1-2 [Cpd. No. 53, 3-(1H-inden-3-yl)-2,9-dimethyl-4,6-dihydrothieno[2,3-e][1,2,4]triazolo[3,4-c][1,4]oxazepine] | 244 nM |  |  |
| Cc1sc2c(c1C1CCc3ccccc31)COCc1nnc(C)n1-2 (centres unmarked) [Cpd. No. 55, 3-(2,3-dihydro-1H-inden-1-yl)-2,9-dimethyl-4,6-dihydrothieno[2,3-e][1,2,4]triazolo[3,4-c][1,4]oxazepine] | 288 nM |  |  |
| Cc1sc2c(c1C1=CCCCc3ccccc31)COCc1nnc(C)n1-2 [Cpd. No. 56, 3-(6,7-dihydro-5H-benzo[7]annulen-9-yl)-2,9-dimethyl-4,6-dihydrothieno[2,3-e][1,2,4]triazolo[3,4-c][1,4]oxazepine] | 134 nM |  |  |
| Cc1sc2c(c1C1=CCCc3cc(F)ccc31)COCc1nnc(C)n1-2 [Cpd. No. 57, 3-(6-fluoro-3,4-dihydronaphthalen-1-yl)-2,9-dimethyl-4,6-dihydrothieno[2,3-e][1,2,4]triazolo[3,4-c][1,4]oxazepine] | 198 nM |  |  |
| Cc1sc2c(c1C1=CCCc3ccc(F)cc31)COCc1nnc(C)n1-2 [Cpd. No. 58, 3-(7-fluoro-3,4-dihydronaphthalen-1-yl)-2,9-dimethyl-4,6-dihydrothieno[2,3-e][1,2,4]triazolo[3,4-c][1,4]oxazepine] | 289 nM |  |  |
| Cc1nnc2n1-c1ccc(Cl)c(Br)c1COC2 [Cpd. No. 70, 7-bromo-8-chloro-1-methyl-4,6-dihydrobenzo[e][1,2,4]triazolo[3,4-c][1,4]oxazepine] | > 10000 nM |  |  |
| Cc1nnc2n1-c1ccc(Cl)c(C3=CCCc4ccccc43)c1COC2 [Cpd. No. 74, 8-chloro-7-(3,4-dihydronaphthalen-1-yl)-1-methyl-4,6-dihydrobenzo[e][1,2,4]triazolo[3,4-c][1,4]oxazepine] |  |  | 1780 |
| Cc1nnc2n1-c1ccc(C#C[Si](C)(C)C)c(Cc3ccccc3)c1COC2 [Cpd. No. 82, 7-benzyl-1-methyl-8-((trimethylsilyl)ethynyl)-4,6-dihydrobenzo[e][1,2,4]triazolo[3,4-c][1,4]oxazepine] | 500 nM |  |  |
| Cc1sc2c(c1COC(C)(C)C)COCc1nnc(C)n1-2 [Cpd. No. 108, 3-(tert-butoxymethyl)-2,9-dimethyl-4H,6H-thieno[2,3-e][1,2,4]triazolo[3,4-c][1,4]oxazepine] | 5000 nM |  |  |

Continued, in another order:

| IC50 (recombinant BRD4 BD1; [1]) | IC50 (recombinant BRD4 BD2) | Structure (SMILES) | IC50 (recombinant BRD4 BD1; IC50 (nM) BRD4 BD1, FP competitive binding) [nM] |
| --- | --- | --- | --- |
| 966 nM |  | Cc1nnc2n1-c1cccc(C3=CCCCc4ccccc43)c1COC2 [Cpd. No. 59, 7-(6,7-dihydro-5H-benzo[7]annulen-9-yl)-1-methyl-4,6-dihydrobenzo[e][1,2,4]triazolo[3,4-c][1,4]oxazepine] |  |
| 1150 nM |  | Cc1nnc2n1-c1cccc(C3CCCCc4ccccc43)c1COC2 (centres unmarked) [Cpd. No. 60, 1-methyl-7-(6,7,8,9-tetrahydro-5H-benzo[7]annulen-5-yl)-4,6-dihydrobenzo[e][1,2,4]triazolo[3,4-c][1,4]oxazepine] |  |
| 2070 nM and 1980 nM |  | Cc1nnc2n1-c1ccc(-c3ccc(N)nc3)c(Cc3ccccc3)c1COC2 [Cpd. No. 72, 5-(7-benzyl-1-methyl-4,6-dihydrobenzo[e][1,2,4]triazolo[3,4-c][1,4]oxazepin-8-yl)pyridin-2-amine] |  |
| 923 nM |  | Cc1nnc2n1-c1ccc(-c3cn[nH]c3)c(Cc3ccccc3)c1COC2 [Cpd. No. 75, 7-benzyl-1-methyl-8-(1H-pyrazol-4-yl)-4,6-dihydrobenzo[e][1,2,4]triazolo[3,4-c][1,4]oxazepine] |  |
| 937 nM |  | Cc1nnc2n1-c1ccc(-c3cnn(CC(N)=O)c3)c(Cc3ccccc3)c1COC2 [Cpd. No. 76, 2-(4-(7-benzyl-1-methyl-4,6-dihydrobenzo[e][1,2,4]triazolo[3,4-c][1,4]oxazepin-8-yl)-1H-pyrazol-1-yl)acetamide] |  |
| 13200 nM |  | Cc1nnc2n1-c1ccc(C3=CCOCC3)c(Cc3ccccc3)c1COC2 [Cpd. No. 77, 7-benzyl-8-(3,6-dihydro-2H-pyran-4-yl)-1-methyl-4,6-dihydrobenzo[e][1,2,4]triazolo[3,4-c][1,4]oxazepine] |  |
| 1320 nM |  | Cc1nnc2n1-c1ccc(C3=COCC3)c(Cc3ccccc3)c1COC2 [Cpd. No. 78, 7-benzyl-8-(4,5-dihydrofuran-3-yl)-1-methyl-4,6-dihydrobenzo[e][1,2,4]triazolo[3,4-c][1,4]oxazepine] |  |
| 18100 nM |  | Cc1nnc2n1-c1ccc(C3CCOCC3)c(Cc3ccccc3)c1COC2 [Cpd. No. 79, 7-benzyl-1-methyl-8-(tetrahydro-2H-pyran-4-yl)-4,6-dihydrobenzo[e][1,2,4]triazolo[3,4-c][1,4]oxazepine] |  |
| 532 nM |  | Cc1nnc2n1-c1ccc(-c3ccoc3)c(Cc3ccccc3)c1COC2 [Cpd. No. 80, 7-benzyl-8-(furan-3-yl)-1-methyl-4,6-dihydrobenzo[e][1,2,4]triazolo[3,4-c][1,4]oxazepine] |  |
| 5420 nM |  | Cc1nnc2n1-c1ccc(C3CCOC3)c(Cc3ccccc3)c1COC2 (centres unmarked) [Cpd. No. 81, 7-benzyl-1-methyl-8-(tetrahydrofuran-3-yl)-4,6-dihydrobenzo[e][1,2,4]triazolo[3,4-c][1,4]oxazepine] |  |
| 150 nM |  | C#Cc1ccc2c(c1Cc1ccccc1)COCc1nnc(C)n1-2 [Cpd. No. 83, 7-benzyl-8-ethynyl-1-methyl-4,6-dihydrobenzo[e][1,2,4]triazolo[3,4-c][1,4]oxazepine] |  |
| 6510 nM |  | Cc1nnc2n1-c1sc(CN3CCOCC3)c(Cc3ccccc3)c1COC2 [Cpd. No. 90, 3-benzyl-9-methyl-2-(morpholinomethyl)-4H,6H-thieno[2,3-][1,2,4]triazolo[3,4-c][1,4]oxazepine] |  |
| 1050 nM |  | C=C(C)c1sc2c(c1Cc1ccccc1)COCc1nnc(C)n1-2 [Cpd. No. 94, 3-benzyl-9-methyl-2-(prop-1-en-2-yl)-4H,6H-thieno[2,3-e][1,2,4]triazolo[3,4-c][1,4]oxazepine] |  |
| 1820 nM |  | Cc1nnc2n1-c1sc(C3=CCOCC3)c(Cc3ccccc3)c1COC2 [Cpd. No. 95, 3-benzyl-2-(3,6-dihydro-2H-pyran-4-yl)-9-methyl-4H,6H-thieno[2,3-e][1,2,4]triazolo[3,4-c][1,4]oxazepine] |  |
| 6710 nM |  | Cc1nnc2n1-c1sc(C3CCOCC3)c(Cc3ccccc3)c1COC2 [Cpd. No. 97, 3-benzyl-9-methyl-2-(tetrahydro-2H-pyran-4-yl)-4H,6H-thieno[2,3-e][1,2,4]triazolo[3,4-c][1,4]oxazepine] |  |
| 313 nM |  | Cc1sc2c(c1Cc1cc(F)cc(F)c1)COCc1nnc(C)n1-2 [Cpd. No. 104, 3-(3,5-difluorobenzyl)-2,9-dimethyl-4H,6H-thieno[2,3-e][1,2,4]triazolo[3,4-c][1,4]oxazepine] |  |
| 279 nM |  | Cc1sc2c(c1Cc1ccc(F)c(F)c1)COCc1nnc(C)n1-2 [Cpd. No. 105, 3-(3,4-difluorobenzyl)-2,9-dimethyl-4H,6H-thieno[2,3-e][1,2,4]triazolo[3,4-c][1,4]oxazepine] |  |
| 494 nM |  | Cc1sc2c(c1Cn1cccc1)COCc1nnc(C)n1-2 [Cpd. No. 107, 3-((1H-pyrrol-1-yl)methyl)-2,9-dimethyl-4H,6H-thieno[2,3-e][1,2,4]triazolo[3,4-c][1,4]oxazepine] |  |
| 118 nM |  | Cc1nnc2n1-c1scc(Br)c1CO[C@H]2C [Cpd. No. 117, (S)-3-bromo-6,9-dimethyl-4,6-dihydrothieno[2,3-e][1,2,4]triazolo[3,4-c][1,4]oxazepine] |  |

Source: patent US11548899B2, “Fused 1,4-oxazepines and related analogs as BET bromodomain inhibitors” (THE REGENTS OF THE UNIVERSITY OF MICHIGAN, priority 2016, dated 2023)
